Laboratory results taken from the NIST ThermoML archive (doi:10.1021/je900113f).

Conditions: 101.33 kPa, Liquid, Vibrating wire viscometry

CC(C)CCCCCCCOC(=O)c1ccccc1C(=O)OCCCCCCCC(C)C
Conditions	viscosity [mPa·s]
283.03 K	264.88
288.23 K	176.35
288.36 K	173.92
293.23 K	122.34
293.93 K	116.51
298.13 K	87.76
298.58 K	85.3
303.18 K	64.51
303.5 K	63.25
